According to paper PMC6541369, “Stereo- and regioselective hydroboration of 1-exo-methylene pyranoses: discovery of aryltriazolylmethyl C-galactopyranosides as selective galectin-1 inhibitors” (Beilstein Journal of Organic Chemistry, 2019):
Where “and” joins values, the source holds several entries; their conditions need not be identical. Identical values can stand only once. Like-named read-outs stand apart in the source and are kept apart here.

Assays:
Human galectin-1 [1] = target: T1, Human galectin-1 (Homo sapiens, UniProt P09382); assay: competitive fluorescence polarization assay, galectin-1; type: binding; details: for Kd: galectin-1 0.5 µM, fluorescent probe 20 nM, read-out: Dissociation constant KD ± SEM, galectin-1
T1 construct: made in house
Description: Galectin-1, -3, -4C (C-terminal CRD), -4N (N-terminal CRD), -7, -8C, -8N, -9C, and -9N affinities for (aryltriazolyl)methyl galactopyranosyls 1a–n were determined in a competitive fluorescence polarization titration assay [[…]].
(§1) Human galectin-1 [36] and galectin-3 [37] were expressed and purified as earlier described. Fluorescence polarization experiments were performed on a PheraStarFS plate reader with software PHERAstar Mars version 2.10 R3 (BMG, Offenburg, Germany). Specific experimental conditions were a galectin-1 concentration of 0.5 µM together with the fluorescent probe (3,3’-dideoxy-3-[4-(fluorescein-5-ylcarbonylaminomethyl)-1H-1,2,3-triazol-1-yl]-3’-(3,5-dimethoxybenzamido)-1,1’-sulfanediyl-di-β-D-galactopyranoside) concentration of 20 nM and a galectin-3 concentration of 0.2 µM together with the fluorescent probe (3,3’-dideoxy-3-[4-(fluorescein-5-ylcarbonylaminomethyl)-1H-1,2,3-triazol-1-yl]-3’-(3,5-dimethoxybenzamido)-1,1’-sulfanediyl-di-β-D-galactopyranoside) concentration of 20 nM, respectively. […] Dissociation constants average and SEM were calculated from two to eight single point measurements showing between 20–80% inhibition.

galectin-3 [2] = target: T2, galectin-3 (Homo sapiens, UniProt P17931); assay: competitive fluorescence polarization assay, galectin-3; type: binding; details: galectin-3 0.2 µM, fluorescent probe 20 nM; for Kd: read-out: Dissociation constant KD ± SEM, galectin-3
T2 construct: made in house
Description: Galectin-1, -3, -4C (C-terminal CRD), -4N (N-terminal CRD), -7, -8C, -8N, -9C, and -9N affinities for (aryltriazolyl)methyl galactopyranosyls 1a–n were determined in a competitive fluorescence polarization titration assay [[…]]. Compounds 1a–n had millimolar or higher affinities for all galectins except for galectins-1 and -3. […] Of particular interest is the different difluorinated aryls 1e–g, which show a reversed selectivity pattern. They display twofold preference for galectin-3 (1g), but their poor affinities limit their use as effective galectin-3 inhibitors. […] Monosaccharide derivatives with somewhat higher affinity for galectin-1 are known; dissociation constants down to 62 µM and selectivity of 8 over galectin-3 [34]. However, these inhibitors are larger and carry double modifications with an anomeric thiophenyl aglycon combined with a heteroaryltriazole moiety at galactose C3 that both form affinity and selectivity-enhancing interactions with galectin-1. Unfortunately, attempts to combine the anomeric 4-fluorophenyltriazolylmethyl moiety of compound 1b with such a galactose C3-thiazolyltriazole substituent reported to enhance affinity for galectin-1 [34] failed in our hands, why other additional substituents to combine with the 4-fluorophenyltriazolylmethyl moiety of compound 1b remain to be discovered.
as §1

Human galectin-1 [3] = target: T1, Human galectin-1; design: method as in PMID 15889175; details: reference compounds; read-out: Dissociation constant KD, galectin-1; cited from earlier work
galectin-3 [4] = target: T2, galectin-3; design: method as in PMID 15889175; details: reference compounds; read-out: Dissociation constant KD, galectin-3; cited from earlier work
[5] = ratio of galectin-3 KD to galectin-1 KD

T2 sequence (P17931 whole entry): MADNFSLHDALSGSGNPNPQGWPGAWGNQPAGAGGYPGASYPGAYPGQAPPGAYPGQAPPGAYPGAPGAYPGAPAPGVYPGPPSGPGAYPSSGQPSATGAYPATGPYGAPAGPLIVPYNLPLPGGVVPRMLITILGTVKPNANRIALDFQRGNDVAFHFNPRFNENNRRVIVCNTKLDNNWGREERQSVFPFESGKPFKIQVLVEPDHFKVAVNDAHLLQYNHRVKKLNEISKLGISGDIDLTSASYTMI
T1 sequence (P09382 whole entry): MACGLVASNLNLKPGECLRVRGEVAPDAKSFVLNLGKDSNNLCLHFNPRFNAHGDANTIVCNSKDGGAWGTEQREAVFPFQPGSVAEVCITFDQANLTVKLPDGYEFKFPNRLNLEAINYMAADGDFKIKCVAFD

Row | SMILES | Kd (Human galectin-1 [1]) [µM] | Selectivity Galectin-1/3 (Human galectin-1 [1]; [5]) | Kd (galectin-3 [2]) [µM] | Dissociation constant KD ± SEM, galectin-3 (galectin-3 [2]) | Selectivity Galectin-1/3 (Human galectin-1 [1]; reference compounds, ratio from KD values of ref 35) | Kd (Human galectin-1 [3]) [µM] | Kd (galectin-3 [4]) [µM]
1 | OC[C@H]1O[C@H](Cn2cc(-c3ccccc3)nn2)[C@H](O)[C@@H](O)[C@H]1O [1a, 1,2-Dideoxy-1-(4-phenyl-1H-1,2,3-triazol-1-yl)-β-D-galactoheptulose] | 600 ± 48 | 1.5 | 870 ± 37 | – | – | – | –
2 | OC[C@H]1O[C@H](Cn2cc(-c3ccc(F)cc3)nn2)[C@H](O)[C@@H](O)[C@H]1O [1b, 1,2-Dideoxy-1-[4-(4-fluorophenyl)-1H-1,2,3-triazol-1-yl]-β-D-galactoheptulose] | 170 ± 2 | 4 and 4.2 | 710 ± 36 | – | – | – | –
3 | OC[C@H]1O[C@H](Cn2cc(-c3cccc(F)c3)nn2)[C@H](O)[C@@H](O)[C@H]1O [1c, 1,2-Dideoxy-1-[4-(3-fluorophenyl)-1H-1,2,3-triazol-1-yl]-β-D-galactoheptulose] | 1200 ± 120 | 0.6 | 720 ± 64 | – | – | – | –
4 | OC[C@H]1O[C@H](Cn2cc(-c3ccccc3F)nn2)[C@H](O)[C@@H](O)[C@H]1O [1d, 1,2-Dideoxy-1-[4-(2-fluorophenyl)-1H-1,2,3-triazol-1-yl]-β-D-galactoheptulose] | 390 ± 38 | 1.3 | 500 ± 23 | – | – | – | –
5 | OC[C@H]1O[C@H](Cn2cc(-c3ccc(F)c(F)c3)nn2)[C@H](O)[C@@H](O)[C@H]1O [1e, 1,2-Dideoxy-1-[4-(3,4-difluorophenyl)-1H-1,2,3-triazol-1-yl]-β-D-galactoheptulose] | 860 ± 150 | 0.7 | 610 ± 160 | – | – | – | –
6 | OC[C@H]1O[C@H](Cn2cc(-c3cc(F)cc(F)c3)nn2)[C@H](O)[C@@H](O)[C@H]1O [1f, 1,2-Dideoxy-1-[4-(3,5-difluorophenyl)-1H-1,2,3-triazol-1-yl]-β-D-galactoheptulose] | 1100 ± 43 | 0.7 | 790 ± 48 | – | – | – | –
7 | OC[C@H]1O[C@H](Cn2cc(-c3ccc(F)cc3F)nn2)[C@H](O)[C@@H](O)[C@H]1O [1g, 1,2-Dideoxy-1-[4-(2,4-difluorophenyl)-1H-1,2,3-triazol-1-yl]-β-D-galactoheptulose] | 1100 ± 16 | 0.4 | 490 ± 55 | – | – | – | –
8 | Cc1ccc(-c2cn(C[C@H]3O[C@H](CO)[C@H](O)[C@H](O)[C@H]3O)nn2)cc1 [1h, 1,2-Dideoxy-1-[4-(4-methylphenyl)-1H-1,2,3-triazol-1-yl]-β-D-galactoheptulose] | 1000 ± 130 | >3 | > 3000 | undetectable | – | – | –
9 | Cc1cccc(-c2cn(C[C@H]3O[C@H](CO)[C@H](O)[C@H](O)[C@H]3O)nn2)c1 [1i, 1,2-Dideoxy-1-[4-(3-methylphenyl)-1H-1,2,3-triazol-1-yl]-β-D-galactoheptulose] | 990 ± 23 | >3 | > 3000 | undetectable | – | – | –
10 | OC[C@H]1O[C@H](Cn2cc(-c3ccc(OC(F)(F)F)cc3)nn2)[C@H](O)[C@@H](O)[C@H]1O [1j, 1,2-Dideoxy-1-[4-(4-trifluoromethoxyphenyl)-1H-1,2,3-triazol-1-yl]-β-D-galactoheptulose] | 500 ± 59 | 1.4 | 700 ± 52 | – | – | – | –
11 | OC[C@H]1O[C@H](Cn2cc(-c3ccc(C(F)(F)F)cc3)nn2)[C@H](O)[C@@H](O)[C@H]1O [1k, 1,2-Dideoxy-1-[4-(4-trifluoromethylphenyl)-1H-1,2,3-triazol-1-yl]-β-D-galactoheptulose] | 240 ± 61 | 3.5 | 830 ± 38 | – | – | – | –
12 | OC[C@H]1O[C@H](Cn2cc(-c3cccc4ccccc34)nn2)[C@H](O)[C@@H](O)[C@H]1O [1l, 1,2-Dideoxy-1-(4-naphth-1-yl-1H-1,2,3-triazol-1-yl)-β-D-galactoheptulose] | 180 ± 20 | 2.6 | 470 ± 95 | – | – | – | –
13 | OC[C@H]1O[C@@H](Cn2cc(-c3ccc(-c4ccccc4)cc3)nn2)[C@H](O)[C@@H](O)[C@H]1O [1m, 1,2-Dideoxy-1-[4-(4-biphenyl)-1H-1,2,3-triazol-1-yl]-β-D-galactoheptulose] | 710 ± 12 | 1.7 | 1200 ± 11 | – | – | – | –
14 | OC[C@H]1O[C@H](Cn2cc(-c3ccc4ccccc4c3)nn2)[C@H](O)[C@@H](O)[C@H]1O [1n, 1,2-Dideoxy-1-(4-naphth-2-yl-1H-1,2,3-triazol-1-yl)-β-D-galactoheptulose] | 1500 ± 290 | 1.1 | 1700 ± 190 | – | – | – | –
15 | CO[C@@H]1O[C@H](CO)[C@@H](O[C@@H]2O[C@H](CO)[C@H](O)[C@H](O)[C@H]2O)[C@H](O)[C@H]1O [compound 12, methyl β-lactoside] | – | – | – | – | 1.2 | 190 | 220
